≈ marks a conversion by molar mass, not a printed value. Entries after “also recorded” stand apart in the source; their conditions may differ. Like-named read-outs stand apart in the source and are kept apart here.

By MFC is commonly meant the smallest concentration meeting the test's criterion for killing the fungus. Higher therefore signals weaker fungicidal potency. The MIC80 is an inhibitory concentration at the 80% level, which refers to growth in some studies and to a panel of isolates in others. High values mean lower susceptibility, low ones higher susceptibility. Usually MIC stands for the least concentration at which growth counts as inhibited. A higher MIC goes with a less susceptible organism.

For assay [1], the system named is Aspergillus terreus 191A6. The experiment in a line: Antifungal MIC80/MFC assay, fungal pathogen panel.
Assay [2] concerns Fusarium solani 243G2. The experiment in a line: Antifungal MIC80/MFC assay, fungal pathogen panel.
The test system of assay [3] is Cryptococcus neoformans H99. The experiment in a line: Antifungal MIC80/MFC assay, fungal pathogen panel.
The test system of assay [4] is Curvularia lunata NRRL6409. Put plainly: Antifungal MIC80/MFC assay, fungal pathogen panel.
Assay [5] relates to Paecilomyces lilacinus 165E10. Put plainly: Antifungal MIC80/MFC assay, fungal pathogen panel. The settings on record: Purpureocillium lilacinum, 165E10.
In assay [6] the test system is Candida tropicalis ATCC750 (Y-12699). Put plainly: Antifungal MIC80/MFC assay, fungal pathogen panel. The settings on record: Candida tropicalis, ATCC750.
In assay [7] the test system is Aspergillus flavus NRRL485. Put plainly: Antifungal MIC80/MFC assay, fungal pathogen panel.
Assay [8] relates to Candida albicans SC5314. Put plainly: Antifungal MIC80/MFC assay, fungal pathogen panel.
For assay [9], the system named is Aspergillus fumigatus NRRL6113. Put plainly: Antifungal MIC80/MFC assay, fungal pathogen panel.
The subject of assay [10] is Aspergillus fumigatus MYA 3627. Put plainly: Antifungal MIC80/MFC assay, fungal pathogen panel. The conditions noted are these: MYA3627.
The subject of assay [11] is Hamigera insecticola NRRL35442. The experiment in a line: Antifungal MIC80/MFC assay, fungal pathogen panel.
Assay [12] concerns Candida albicans ATCC 10231. Put plainly: Antifungal MIC80/MFC assay, fungal pathogen panel. The settings on record: ATCC10231.
The subject of assay [13] is Candida krusei ATCC 6258 (Y-7179). Put plainly: Antifungal MIC80/MFC assay, fungal pathogen panel. The conditions noted are these: Pichia kudriavzevii, ATCC6258.
Assay [14] has as its system Rhizopus oryzae FGSC 9543. Put plainly: Antifungal MIC80/MFC assay, fungal pathogen panel. The conditions noted are these: Rhizopus arrhizus, FGSC9543.
For assay [15], the system named is Candida parapsilosis ATCC 22019 (Y-12969). Put plainly: Antifungal MIC80/MFC assay, fungal pathogen panel. The settings on record: Lodderomyces parapsilosis, ATCC22019.
The test system of assay [16] is Aspergillus niger FGSC A732. The experiment in a line: Antifungal MIC80/MFC assay, fungal pathogen panel. The conditions noted are these: Aspergillus niger, FGSCA732.
Assay [17] concerns Mucor circinelloides 235C7. The experiment in a line: Antifungal MIC80/MFC assay, fungal pathogen panel.
In assay [18] the test system is Aspergillus fumigatus NRRL5109. The experiment in a line: Antifungal MIC80/MFC assay, fungal pathogen panel.
Assay [19] has as its system Candida albicans SC5314. The experiment in a line: Ex vivo model of fungal keratitis (porcine cornea). The conditions noted are these: for antifungal activity (fungal growth/infection), in words: 0.1% 118A, 2% fluconazole, 5% natamycin, FIG. 11; for CFU: 118A 0.1% (1 mg/ml), natamycin 5% (50 mg/ml), fluconazole 2% (20 mg/ml).
Assay [20] has as its system C. albicans SC5314 Flu^R. The experiment in a line: Ex vivo model of fungal keratitis (porcine cornea). Set-up: species or system Candida albicans. The settings on record: C. albicans SC5314 Flu^R; 118A 0.1% (1 mg/ml), natamycin 5% (50 mg/ml), fluconazole 2% (20 mg/ml).
In assay [21] the test system is Aspergillus fumigatus NRRL5109. Put plainly: Ex vivo model of fungal keratitis (porcine cornea). The conditions noted are these: for antifungal activity (fungal growth/infection), in words: Aspergillus fumigatus NRRL 5109, 0.1% 118A, 2% fluconazole, 5% natamycin, FIG. 13; for CFU: Aspergillus fumigatus NRRL5109, 118A 0.1% (1 mg/ml), natamycin 5% (50 mg/ml), fluconazole 2% (20 mg/ml).

Assay [22] deals with Nodulosporium spp. Put plainly: MIC/MFC against phytopathogenic (endophytic) fungi.
Assay [23] deals with P. glomerata. Put plainly: MIC/MFC against phytopathogenic (endophytic) fungi.
Assay [24] has as its system Alternaria brassicae. Put plainly: MIC/MFC against phytopathogenic (endophytic) fungi.
Assay [25] deals with Fusarium oxysporum. Put plainly: MIC/MFC against phytopathogenic (endophytic) fungi.
For assay [26], the system named is Alternaria tennuissiema. The experiment in a line: MIC/MFC against phytopathogenic (endophytic) fungi.
For assay [27], the system named is Alternaria brassicicola. The experiment in a line: MIC/MFC against phytopathogenic (endophytic) fungi.
The subject of assay [28] is Mycosphaerella populorum. Put plainly: MIC/MFC against phytopathogenic (endophytic) fungi. The conditions noted are these: Sphaerulina musiva.
Assay [29] relates to Fusarium tricinctum. Put plainly: MIC/MFC against phytopathogenic (endophytic) fungi.

For `CC[C@H](C)C[C@H](C)CCCCCCCCC(=O)N[C@H]1C[C@@H](O)[C@@H](NCCN)NC(=O)[C@@H]2[C@@H](O)CCN2C(=O)[C@H]([C@H](O)CCN)NC(=O)[C@H]([C@H](O)[C@@H](O)c2ccc(O)cc2)NC(=O)[C@@H]2C[C@@H](O)CN2C(=O)[C@H]([C@@H](C)O)NC1=O` [CASP, caspofungin], the MFC in assay [1] is > 10 µM; in assay [2], > 10 µM; in assay [3] it was > 10 µM; in assay [4], 5 µM (≈ 5.47 µg/mL); in assay [5] it was > 10 µM; in [6] it was 0.15 µM (≈ 0.164 µg/mL). The MFC in assay [7] was > 10 µM; in [8], 0.625 µM (≈ 0.683 µg/mL); in assay [9] it was > 10 µM; in assay [10], > 10 µM; in assay [11], > 10 µM; in assay [12], 5 µM (≈ 5.47 µg/mL). Besides, the MFC in assay [13] was 0.3 µM (≈ 0.328 µg/mL); in assay [14], > 10 µM; in [15] it was 1.25 µM (≈ 1.37 µg/mL); in assay [16], > 10 µM; in [17], > 10 µM; in assay [18] it was > 10 µM. The MIC80 is 0.125 µM (≈ 0.137 µg/mL) in [1]; 0.15 µM (≈ 0.164 µg/mL) in [2]; > 10 µM in [3]; 5 µM (≈ 5.47 µg/mL) in [4]; > 10 µM in [5]; 0.03 µM (≈ 0.0328 µg/mL) in assay [6]. Besides, the MIC80 in assay [7] is > 10 µM; in [8], 0.03 µM (≈ 0.0328 µg/mL); in [9], > 10 µM; in assay [10], 0.07 µM (≈ 0.0765 µg/mL); in assay [11], 0.06 µM (≈ 0.0656 µg/mL); in assay [12], 0.03 µM (≈ 0.0328 µg/mL). Also, the MIC80 in assay [13] was 0.15 µM (≈ 0.164 µg/mL); in assay [14] it was > 10 µM; in [15] it was 0.3 µM (≈ 0.328 µg/mL); in assay [16], 0.06 µM (≈ 0.0656 µg/mL); in assay [17] it was > 10 µM; in [18], > 10 µM.

Take `OC(Cn1cncn1)(Cn1cncn1)c1ccc(F)cc1F` [Fluconazole, fluconazole]: the “antifungal activity (fungal growth/infection), in words” value in [19] is given as “reduced the infection”; in assay [21], “did not inhibit the growth”; in assay [21] (listed as fluconazole) it was “unable to fully inhibit the fungus”. Also, the values for the CFU in assay [19], in [20] and in assay [21] were 13.7 ± 19.3 CFU, 2.2 ± 0.9 × 10^5 CFU and 2.0 ± 1.0 × 10^4 CFU, respectively.

Consider `N#Cc1c[nH]cc1-c1cccc2c1OC(F)(F)O2` [Fludioxonil, fludioxonil], for which the MFC in [22] is > 20 µM; in assay [23], > 20 µM; in assay [24] it was 2.5 µM (≈ 0.62 µg/mL); in assay [25] it was > 20 µM; in assay [26], 1.25 µM (≈ 0.31 µg/mL); in [27], > 20 µM. For the same compound, the minimum fungicidal concentration (MFC) in assay [28] and in assay [29] was > 20 µM each time. The minimum inhibitory concentration (MIC) in assay [22] is 0.625 µM (≈ 0.155 µg/mL); in assay [23], > 20 µM; in [23] (P. glomerata, […]), “no activity in the range tested”; in assay [24] it was 0.625 µM (≈ 0.155 µg/mL); in assay [25] it was 5 µM (≈ 1.24 µg/mL); in [26], 1.25 µM (≈ 0.31 µg/mL). Moreover, the MIC in [27], in [28] and in assay [29] was 1.25 µM (≈ 0.31 µg/mL) each time.

On to `CCC(C)n1ncn(-c2ccc(N3CCN(c4ccc(OCC5COC(Cn6cncn6)(c6ccc(Cl)cc6Cl)O5)cc4)CC3)cc2)c1=O` (stereo not shown) [ITC, itraconazole], for which the MFC in assay [1] was 2.5 µM (≈ 1.76 µg/mL); in assay [2], 5 µM (≈ 3.53 µg/mL); in assay [3], > 10 µM; in assay [4], 5 µM (≈ 3.53 µg/mL); in assay [5], 1.25 µM (≈ 0.882 µg/mL); in [6] it was > 10 µM. In addition, the minimum fungicidal concentration (MFC) in [7] was 0.6 µM (≈ 0.423 µg/mL); in assay [8] it was > 10 µM; in [9], > 10 µM; in assay [10], > 10 µM; in assay [11], 1.25 µM (≈ 0.882 µg/mL); in assay [12], > 10 µM. In addition, the MFC in assay [13] is 2.5 µM (≈ 1.76 µg/mL); in [14] it was 0.6 µM (≈ 0.423 µg/mL); in assay [15], 5 µM (≈ 3.53 µg/mL); in assay [16] it was 5 µM (≈ 3.53 µg/mL); in assay [17], > 10 µM; in [18], 10 µM (≈ 7.06 µg/mL). In addition, the MIC80 in assay [1] is 0.6 µM (≈ 0.423 µg/mL); in [2], 2.5 µM (≈ 1.76 µg/mL); in [3] it was 0.6 µM (≈ 0.423 µg/mL); in assay [4] it was 2.5 µM (≈ 1.76 µg/mL); in assay [5] it was 2.5 µM (≈ 1.76 µg/mL); in assay [6], 0.6 µM (≈ 0.423 µg/mL). Further, the MIC80 in assay [7] amounted to 0.15 µM (≈ 0.106 µg/mL); in assay [8] it was 0.125 µM (≈ 0.0882 µg/mL); in assay [9] it was 1.25 µM (≈ 0.882 µg/mL); in assay [10] it was 5 µM (≈ 3.53 µg/mL); in [11], 0.3 µM (≈ 0.212 µg/mL); in assay [12], 0.06 µM (≈ 0.0423 µg/mL). Further, the MIC80 in [13] is 0.6 µM (≈ 0.423 µg/mL); in assay [14], 0.6 µM (≈ 0.423 µg/mL); in assay [15], 0.6 µM (≈ 0.423 µg/mL); in assay [16] it was 2.5 µM (≈ 1.76 µg/mL); in assay [17], 10 µM (≈ 7.06 µg/mL); in assay [18], 1.25 µM (≈ 0.882 µg/mL).

Regarding `C[C@@H]1C/C=C/C=C/C=C/C=C/[C@H](O[C@@H]2O[C@H](C)[C@@H](O)[C@H](N)[C@@H]2O)C[C@@H]2O[C@](O)(C[C@@H](O)C[C@H]3O[C@@H]3/C=C/C(=O)O1)C[C@H](O)[C@H]2C(=O)O` [Natamycin, natamycin], the “antifungal activity (fungal growth/infection), in words” value in assay [19] is “inhibited the growth; also recorded: reduced the infection”; in [21] it was “inhibited the growth; also recorded: reduced the fungal burden”. The CFU in assay [19], in assay [20] and in [21] was 0 CFU in each case.

Source of the values: patent US11643438B2, “Antimicrobial peptides and methods of use” (priority 2018, dated 2023).
